Measurements published in patent US10857209B2, “Lysosomal acid lipase and PPAR gamma ligands as immune therapies for cancer treatment” (Indiana University Research and Technology Corporation, priority 2016, dated 2020).

How the values were obtained:
B16 melanoma cells [1] = test: Transwell assay, effect of MDSC-secreted cytokines on melanoma cell proliferation; type: cell-based, mouse; conditions: pre-treated lal−/− Ly6G+ cells in upper chamber; 72 hours
Description: To observe the effect of MDSCs-secreted cytokines on melanoma cell proliferation, transwell assay was performed with 0.4-μm-pore 6.5-mm diameter Transwell plates (Corning) to separate MDSCs and B16 melanoma cells. One million pre-treated MDSCs in 200 μL media were seeded into the upper chamber of the plates, while 2×10^4 melanoma cells in 500 μL media were placed in the lower chamber. After 72 hours' culture, the transwells were removed, and the number of B16 melanoma cells in the lower chamber was counted.

Ly6G+CD11b+ cells = test: Mitochondrial membrane potential (JC-1) in Ly6G+CD11b+ cells by flow cytometry; type: cell-based, mouse; conditions: lal−/− Ly6G+CD11b+ cells; 20 μmol/L, 48 hours; vs ethanol
Description: The reactive oxygen species (ROS) level and mitochondrial membrane potential in MDSCs was measured by flow cytometry. Briefly, bone marrow cells were first treated with or without 20 μmol/L 9-HODE or ethanol for 2 days. For ROS level detection, cells were harvested, washed, and stained with 2′,7′-dichlorofluorescein diacetate (2 μmol/L, Invitrogen), allophycocyanin cy7-conjugated anti-Ly6G Ab, and phycoerythrin cy7-conjugated anti-CD 11b Ab (eBioscience) at 37° C. for 15 minutes. After PBS wash, the ROS level in Ly6G^+CD11b^+ cells was analyzed using a LSRII machine (BD Biosciences).
For mitochondrial membrane potential measurement, cells were stained with the fluorescent dye JC-1 (2 μmol/L, Molecular Probes, Eugene, Oreg., USA), allophycocyanin cy7-conjugated anti-Ly6G antibody, and phycoerythrin cy7-conjugated anti-CD 11b antibody (eBioscience) at 37° C. for 15 minutes, and then analyzed for phycoerythrin (JC-1 red) and fluorescein isothiocyanate (JC-1 green) fluorescent cells in Ly6G^+CD11b^+ cells by flow cytometry. Cells treated with 50 μmol/L carbonyl cyanide 3-chlorophenylhydrazone for 5 minutes were served as a fluorescein isothiocyanate-positive control.

PPARγ = target: T1, PPARγ (Mus musculus, UniProt P37238); test: T cell numbers in lal−/− mice (data not shown)
T1 construct: host or cells: lal-/- mice (lung)
T1 sequence (P37238 1-505): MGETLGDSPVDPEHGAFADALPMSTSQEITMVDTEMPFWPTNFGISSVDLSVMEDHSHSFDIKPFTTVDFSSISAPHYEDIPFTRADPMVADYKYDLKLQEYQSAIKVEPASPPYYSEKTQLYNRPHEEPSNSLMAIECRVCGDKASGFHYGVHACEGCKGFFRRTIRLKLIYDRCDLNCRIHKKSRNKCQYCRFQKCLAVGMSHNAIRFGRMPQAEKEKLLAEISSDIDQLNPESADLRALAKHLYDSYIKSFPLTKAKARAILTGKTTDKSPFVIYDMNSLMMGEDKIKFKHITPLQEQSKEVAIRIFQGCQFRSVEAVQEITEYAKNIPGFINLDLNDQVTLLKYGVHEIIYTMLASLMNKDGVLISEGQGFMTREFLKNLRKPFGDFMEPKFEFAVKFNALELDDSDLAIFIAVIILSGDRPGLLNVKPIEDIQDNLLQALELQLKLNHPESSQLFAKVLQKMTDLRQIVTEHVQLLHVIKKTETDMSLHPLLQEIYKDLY

[2] = Tissue lipid storage in LAP-Tg/KO mice (hepatocyte-specific hLAL expression); type: in vivo, mouse; conditions: hepatocyte transgenic expression in lal−/− mice (doxycycline-untreated LAP-Tg/KO)
Description: LAP-tTA/(TetO)7-CMV-hLAL; lal^−/− (LAP-Tg/KO) triple mice of the FVB/N background was established by cross-breeding of LAP-tTA transgenic mice (Jackson's Laboratory, Bar Harbor, Me.) with a previously generated (tetO)7-CMV-hLAL transgenic mice into lal^−/− mice. This triple transgenic mouse model was hepatocyte-specific Tet-off expression of wild-type hLAL in lal^−/− mice under the control of the LAP. All scientific protocols that involved the use of animals were approved by the Institutional Animal Care and Use Committee of Indiana University School of Medicine and followed guidelines established by the Panel on Euthanasia of the American Veterinary Medical Association. Animals were housed in a secured animal facility at Indiana University School of Medicine.
Total tissue lipids were extracted from the liver and small intestine by the Folch method (Folch et al., J Biol. Chem 1957, […]:497-509). Concentrations of CEs and TGs were determined as described in Due et al., J Lipid Res 2001, 42:489-500 and Du et al., J Immunol 2009, 182:1648-1659).
Frozen tissue sections were prepared from the liver and intestine after a standard cryostat procedure. Tissue section slides were stained with Oil Red-O solution (0.5% in propylene glycol) in a 60° C. oven for 10 minutes and placed in 85% propylene glycol for 1 minute; slides were counter-stained in hematoxylin.

B16 melanoma cells [3] = test: B16 melanoma growth and metastasis in myeloid-specific hLAL Tg/KO triple mice; type: in vivo, mouse; conditions: myeloid-specific expression
Description: lal^+/+ and lal^−/− mice of the FVBN background were bred in house. c-fms-rtTA/(TetO)7-CMV-hLAL; lal^−/− (Tg/KO) triple mice of the FVBN background is a previously generated triple transgenic mouse model with myeloid-specific doxycycline-inducible expression of wild-type human LAL (hLAL) in lal^−/− mice under the control of the c-fms promoter. All scientific protocols involving the use of animals have been approved by the Institutional Animal Care and Use Committee of Indiana University School of Medicine and followed guidelines established by the Panel on Euthanasia of the American Veterinary Medical Association. Animals were housed under Institutional Animal Care and Use Committee-approved conditions in a secured animal facility at the Indiana University School of Medicine.
Four-month-old lal^+/+ or lal^−/− mice were inoculated with 1×10^5 B16 melanoma cells subcutaneously into the flank region, and tumor size (length×width^2×π/6) was monitored every week for 3 weeks. For intravenous injection of B16 melanoma cells, 5×10^5 B16 melanoma cells in 200 μl PBS were injected into 4-month-old lal^+/+ or lal^−/− mice via tail vein. A pilot study was performed to determine the best ratio between MDSCs and B16 melanoma cells. For co-injection of MDSCs and B16 melanoma cells via tail vein, 2×10^6 MDSCs and 5×10^5 B16 melanoma cells were mixed and incubated at 37° C. and 5% CO2 for 30 minutes. […]

9-hydroxyoctadecadienoic acid [9-HODE]
number of B16 melanoma cells in lower chamber (B16 melanoma cells [1]): significantly less
mitochondrial membrane potential (Ly6G+CD11b+ cells): partially recovered
decreased T cell numbers in lal−/− mice (PPARγ): reversed

B1: hLAL: human lysosomal acid lipase expressed from a doxycycline-controlled tissue-specific transgene in lal−/− mice; never administered as a protein (protein)
chain: GPKPVVFLQHGLLADSSNWVTNLANSSLGFILADAGFDVWMGNSRGNTWSRKHKTLSVSQDEFWAFSYDEMAKYDLPASINFILNKTGQEQVYYVGHSQGTTIGFIAFSQIPELAKRIKMFFALGPVASVAFCTSPMAKLGRLPDHLIKDLFGDKEFLPQSAFLKWLGTHVCTHVILKELCGNLCFLLCGFNERNLNMSRVDVYTTHSPAGTSVQNMLHWSQAVKFQKFQAFDWGSSAKNYFHYNQSYPPTYNVKDMLVPTAVWSGGHDWLADVYDVNILLTQITNLVFHESIPEWEHLDFIWGLDAPWRLYNKIINLMRKYQ
modifications: left off: small tags and cut ends
notes: human lysosomal acid lipase expressed from a doxycycline-controlled tissue-specific transgene in lal−/− mice; never administered as a protein
lipid storage (cholesterol and triglyceride) in liver, spleen and small intestine [2]: completely cleaned up
decrease of tumor volume vs untreated mice (B16 melanoma cells [3]; doxycycline-treated Tg/KO triple mice, B16 s.c., 2 weeks post-injection): 50%
melanoma colonies in the lungs (B16 melanoma cells [3]; doxycycline-treated vs untreated Tg/KO triple mice, B16 i.v., 2 weeks): reduced number of melanoma colonies in the lungs
